In patent US12437835B2, “Interrogatory cell-based assays and uses thereof” (Berg LLC, priority 2012, dated 2025):
“Also recorded” adds a separate entry of the source.

Columns and labels:
FASN = FASN (Mus musculus, UniProt P19096); settings: in vivo; cited from earlier work
ENO1 = biological target: T1, ENO1 (Homo sapiens, UniProt P06733); experiment: Global enzyme activity analysis (ATP/ADP probe, LC-MS/MS) in HepG2; assay type: cell-based; settings: HepG2, Sorafenib 1 μM, 24 hours; relative to control, untreated sample
T1 construct: endogenous in cells; host or cells: HepG2 (ATCC HB-8065)
T1 sequence (P06733 whole entry): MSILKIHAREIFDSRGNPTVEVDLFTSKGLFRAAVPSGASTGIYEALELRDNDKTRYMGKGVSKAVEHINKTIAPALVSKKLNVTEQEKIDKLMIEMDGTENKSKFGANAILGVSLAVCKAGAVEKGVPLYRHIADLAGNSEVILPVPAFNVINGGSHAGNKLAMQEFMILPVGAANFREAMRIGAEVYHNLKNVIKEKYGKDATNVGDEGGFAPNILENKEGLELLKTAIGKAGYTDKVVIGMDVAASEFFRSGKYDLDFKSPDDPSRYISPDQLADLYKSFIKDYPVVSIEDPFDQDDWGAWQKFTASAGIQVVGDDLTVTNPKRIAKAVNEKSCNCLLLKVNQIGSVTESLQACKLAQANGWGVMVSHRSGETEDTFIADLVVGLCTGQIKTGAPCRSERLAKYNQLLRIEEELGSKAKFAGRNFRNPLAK
Text: (§1) Multikinase inhibitor Sorafenib, a first line chemotherapeutic agent for the advanced HCC patients, was used to probe the role of global kinase activity and protein phosphorylation changes associated with this treatment. The HepG2 (ATCC Ascension No. HB-8065) cell line was selected to model HCC cells and the THLE2 (ATCC Ascension No. CRL-10149) cell line was selected to model normal hepatic cells.
(§2) FIG. 41B illustrates a method for global enzyme (e.g., kinase) enrichment profiling. First, a cell lysate including the targeted enzyme (e.g., kinase) is parepared. The second step is probe binding (e.g., an ATP probe in the case of kinase). Theny the enzyme is digested and brobe-bound fragments are captured. These fragments can be analyzed (e.g., by LC-MS/MS) and the corresponding protein thus identified (e.g., via a database search of the LC-Ms/MS data).
(§3) THERMO SCIENTIFIC© PIERCE® Kinase Enrichment Kits and ACTIVX© probes (instructions available from THERMO SCIENTIFIC© and PIERCE® Biotechnology www.thermoscientific.com/pierce) were used for global enzyme activity analysis. Briefly, these and similar kits enable selective labeling and enrichment of ATPases including kinases, chaperones and metabolic enzymes. ATP and ADP Probes are generally nucleotide derivatives, which covalently modify the active site of enzymes with conserved lysine residues in the nucleotide-binding site. For example, the structure of desthiobiotin-ATP and -ADP consists of a modified biotin attached to the nucleotide by a labile acyl-phosphate bond. Depending on the position of the lysine within the enzyme active site, either desthiobiotin-ATP or -ADP can be preferred for labeling specific ATPases.
(§4) The cells were cultured according to the following protocol. Day 1: HepG2/Hep3B—seed 3.2×10^6 cells in T-75 culture flasks; 7.4×10^6 cells in T-175 culture flasks; or 9.5×10^6 cells in T-225 culture flasks. THLE-2—seed 1.3×10^6 cells in T-75 culture flasks. Day 2: 16-24 hours later, at 50-70% confluence—add treatment. Control: DMSO at final concentration of 0.01%. EGF: 500 ng/mL in 10 mM acetic acid. […]

LDHA [1] = biological target: T2, LDHA (Homo sapiens, UniProt P00338); experiment: as above; assay type: cell-based; settings: HepG2, Sorafenib 1 μM, 24 hours
T2 construct: endogenous in cells; host or cells: HepG2
Text: as §1, §2, §3, §4

PGK1 = biological target: T3, PGK1 (Homo sapiens, UniProt P00558); experiment: as above; assay type: cell-based; settings: HepG2, Sorafenib 1 μM, 24 hours
T3 construct: endogenous in cells; host or cells: HepG2 (ATCC HB-8065)
T3 sequence (P00558 1-417): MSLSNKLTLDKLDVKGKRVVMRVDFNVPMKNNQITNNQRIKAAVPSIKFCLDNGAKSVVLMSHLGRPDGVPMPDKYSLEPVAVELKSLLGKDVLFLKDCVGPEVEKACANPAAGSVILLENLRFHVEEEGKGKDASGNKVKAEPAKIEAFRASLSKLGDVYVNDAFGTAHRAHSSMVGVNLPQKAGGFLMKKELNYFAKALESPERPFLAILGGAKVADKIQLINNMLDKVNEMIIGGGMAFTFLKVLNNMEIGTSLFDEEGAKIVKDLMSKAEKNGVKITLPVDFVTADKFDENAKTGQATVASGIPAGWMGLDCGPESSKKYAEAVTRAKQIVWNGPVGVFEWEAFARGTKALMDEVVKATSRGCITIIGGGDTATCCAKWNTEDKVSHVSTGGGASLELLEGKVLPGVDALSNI
Text: as §1, §2, §3, §4

LDHA [2] = experiment: Protein expression (quantitative proteomics) in HepG2; assay type: cell-based, Homo sapiens; settings: HepG2, Sorafenib 1 μM, 24 hours
Experimental: as §1
The cells were cultured according to the following protocol. Day 1: HepG2/Hep3B—seed 3.2×10^6 cells in T-75 culture flasks; 7.4×10^6 cells in T-175 culture flasks; or 9.5×10^6 cells in T-225 culture flasks. THLE-2—seed 1.3×10^6 cells in T-75 culture flasks. Day 2: 16-24 hours later, at 50-70% confluence—add treatment. Control: DMSO at final concentration of 0.01%. EGF: 500 ng/mL in 10 mM acetic acid. Sorafenib: 1 μM at 0.1% volume in DMSO. Day 3: 24 hours after treatment, harvest cells by trypsinization. Wash pellets 2× with PBS before freezing.
Thus, the phospho proteome affords an additional layer of information that can be used for elucidating the complex relationship between the effect of an extracellular signal (e.g., drug molecule) on kinase activity and total cellular protein, thereby facilitating the identification of disease treatment targets, as well as diagnostic/prognostic markers associated with disease.

FASN, sequence (P19096 whole entry): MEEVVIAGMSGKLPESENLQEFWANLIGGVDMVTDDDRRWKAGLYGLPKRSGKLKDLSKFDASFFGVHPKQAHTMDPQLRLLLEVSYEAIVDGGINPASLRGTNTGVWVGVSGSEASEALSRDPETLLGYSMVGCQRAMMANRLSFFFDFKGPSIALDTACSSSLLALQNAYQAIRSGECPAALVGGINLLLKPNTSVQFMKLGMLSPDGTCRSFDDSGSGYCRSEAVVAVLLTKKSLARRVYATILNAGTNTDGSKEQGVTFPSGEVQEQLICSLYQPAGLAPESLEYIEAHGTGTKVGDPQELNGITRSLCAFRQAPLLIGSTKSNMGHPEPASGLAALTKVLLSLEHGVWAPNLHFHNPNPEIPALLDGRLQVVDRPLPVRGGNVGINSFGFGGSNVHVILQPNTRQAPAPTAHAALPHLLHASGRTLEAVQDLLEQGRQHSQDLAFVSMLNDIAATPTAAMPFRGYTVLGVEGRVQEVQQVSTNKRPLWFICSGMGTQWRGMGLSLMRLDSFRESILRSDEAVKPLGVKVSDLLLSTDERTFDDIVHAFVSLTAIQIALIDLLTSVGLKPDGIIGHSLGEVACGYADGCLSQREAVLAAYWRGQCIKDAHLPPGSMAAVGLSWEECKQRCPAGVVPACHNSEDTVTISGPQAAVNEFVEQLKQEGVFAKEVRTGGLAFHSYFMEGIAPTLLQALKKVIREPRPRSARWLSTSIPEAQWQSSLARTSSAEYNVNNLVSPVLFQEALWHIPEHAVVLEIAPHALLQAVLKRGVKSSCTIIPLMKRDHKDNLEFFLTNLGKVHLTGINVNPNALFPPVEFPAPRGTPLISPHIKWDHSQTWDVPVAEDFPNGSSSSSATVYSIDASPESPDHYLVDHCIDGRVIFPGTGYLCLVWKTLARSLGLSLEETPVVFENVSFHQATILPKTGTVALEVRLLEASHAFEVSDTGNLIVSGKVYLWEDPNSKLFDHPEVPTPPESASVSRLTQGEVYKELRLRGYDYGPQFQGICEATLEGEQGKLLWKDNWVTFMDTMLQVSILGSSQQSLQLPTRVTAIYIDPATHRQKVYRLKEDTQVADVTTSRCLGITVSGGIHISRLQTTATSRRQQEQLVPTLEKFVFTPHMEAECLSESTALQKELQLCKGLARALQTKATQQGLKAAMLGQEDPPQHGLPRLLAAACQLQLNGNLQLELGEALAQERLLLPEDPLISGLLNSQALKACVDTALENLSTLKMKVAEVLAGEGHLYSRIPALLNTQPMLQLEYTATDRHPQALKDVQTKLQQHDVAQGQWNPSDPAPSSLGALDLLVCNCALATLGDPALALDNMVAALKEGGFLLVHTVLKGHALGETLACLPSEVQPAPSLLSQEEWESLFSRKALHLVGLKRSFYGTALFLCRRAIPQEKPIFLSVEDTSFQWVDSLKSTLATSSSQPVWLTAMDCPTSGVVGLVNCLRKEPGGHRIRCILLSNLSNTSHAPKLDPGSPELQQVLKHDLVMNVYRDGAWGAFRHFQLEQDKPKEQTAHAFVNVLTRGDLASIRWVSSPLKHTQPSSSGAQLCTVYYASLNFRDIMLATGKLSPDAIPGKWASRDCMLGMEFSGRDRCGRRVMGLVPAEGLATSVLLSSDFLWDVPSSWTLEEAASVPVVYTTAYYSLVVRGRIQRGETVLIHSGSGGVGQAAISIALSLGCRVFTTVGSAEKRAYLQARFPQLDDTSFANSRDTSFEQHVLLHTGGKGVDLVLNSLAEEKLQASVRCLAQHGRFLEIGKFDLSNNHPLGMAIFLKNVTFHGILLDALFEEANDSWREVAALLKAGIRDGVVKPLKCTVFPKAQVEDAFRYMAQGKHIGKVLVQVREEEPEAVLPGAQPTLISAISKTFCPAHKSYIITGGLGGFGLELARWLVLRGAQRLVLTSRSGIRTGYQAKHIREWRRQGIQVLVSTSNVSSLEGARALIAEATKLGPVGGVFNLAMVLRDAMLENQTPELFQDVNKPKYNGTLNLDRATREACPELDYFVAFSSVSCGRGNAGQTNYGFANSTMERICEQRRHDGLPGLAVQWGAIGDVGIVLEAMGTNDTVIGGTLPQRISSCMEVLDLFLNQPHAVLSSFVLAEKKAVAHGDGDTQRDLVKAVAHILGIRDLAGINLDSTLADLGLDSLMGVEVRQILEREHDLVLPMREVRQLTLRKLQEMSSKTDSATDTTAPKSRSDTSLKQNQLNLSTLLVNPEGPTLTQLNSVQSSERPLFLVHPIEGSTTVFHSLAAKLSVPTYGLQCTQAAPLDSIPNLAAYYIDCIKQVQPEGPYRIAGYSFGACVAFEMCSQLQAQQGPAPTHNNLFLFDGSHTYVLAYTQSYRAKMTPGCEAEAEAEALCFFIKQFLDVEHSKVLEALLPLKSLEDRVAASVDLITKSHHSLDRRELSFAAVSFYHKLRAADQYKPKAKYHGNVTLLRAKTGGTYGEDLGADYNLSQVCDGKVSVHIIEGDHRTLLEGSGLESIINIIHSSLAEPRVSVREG

| Compound | food intake (FASN) | weight loss (FASN) | ENO1 activity (ENO1) | LDHA activity (LDHA [1]) | PGK1 activity (PGK1) | LDHA protein expression (LDHA [2]) |
| --- | --- | --- | --- | --- | --- | --- |
| C=C1C(=O)OC(CCCCCCCC)C1C(=O)O (centres unmarked) [C75] | reducing food intake | weight loss |  |  |  |  |
| C/C=C/C/C=C/CCC(=O)[C@H]1O[C@H]1C(N)=O [Cerulenin] | reducing food intake | weight loss |  |  |  |  |
| CNC(=O)c1cc(Oc2ccc(NC(=O)Nc3ccc(Cl)c(C(F)(F)F)c3)cc2)ccn1 [Sorafenib] |  |  | significant decrease; also recorded: downregulating | significant decrease; also recorded: downregulating | significant decrease; also recorded: downregulating | upregulation |
